Measurements taken from patent US12295973B2 (Fred Hutchinson Cancer Center, priority 2017, dated 2025).

System: mice exposed to L-TBI
Experiment: Mouse survival after lethal total body irradiation (L-TBI, 840cGy)
Type: in vivo
Details: MDV3100 24 h after L-TBI, alone
Description: Description. Inhibition of sex steroids, which can be achieved in a reversible fashion pharmacologically, is a well-described strategy to promote lymphopoiesis in the BM and thymus^8,7,14,15. Although the most common method of sex steroid ablation clinically has been to use LHRH-agonists, it was described that an LHRH-Antagonist represents a more rational approach to promote immediate ablation of sex steroids for immune regeneration as it is far more rapid and abrogates the initial surge in sex steroids that LHRH-Agonist cause^16. Taken together with the impact of sex steroid inhibition on HSC function and the rapid regenerative effects of LHRH-Ant, it was hypothesized that LHRH-Ant could represent a rational non-cellular medical countermeasure for mitigating radiation injury and promoting hematopoietic regeneration when administered after hematopoietic insult. […] It was then tested if LHRH-Ant could mediate even greater mouse survival when administered multiple times.
Methods. […] B6.SJL-Ptprca Pepcb/BoyJ (CD45.1) male mice (The Jackson Laboratory) were used between 7 and 12 weeks of age for transplant. Mice were irradiated with a Gammacell 40 Irradiator (Cs-137), with an average dose rate of 95 cGy/min, in a plexiglass mouse pie cage. To assess mouse survival after radiation, mice were monitored for up to 60 days after TBI. To adjust for differences in weight, identical mice were purchased from Jackson and cages randomly distributed over different groups. All animal protocols were approved by the Memorial Sloan Kettering Cancer Center Institutional Animal Care and Use Committee.
Reagents: Degarelix (as acetate), a LHRH-Ant (Firmagon), was resuspended in sterile water for injection and administered S.C. to mice at a dose of 40 mg/kg. To evaluate the radiomitigative effect of LHRH-Ant on survival, mice were treated subcutaneously (S.C.) with a single injection of the LHRH-Ant or a saline control solution (PBS). Degarelix was purchased from the Memorial Sloan-Kettering Cancer Center Pharmacy. […] MDV3100 (selleckchem) was resuspended in a mixture of 45% PBS, 45% PEG and 10% DMSO and administered daily to mice by oral gavage at a dose of 10 mg/kg. 5-FU (InvivoGen) was administered to mice intraperitoneally (I.P.) at a dose of 150 mg/kg once every 7 days consecutively for 3 times as previously described^34,47,49.

SMILES: CNC(=O)c1ccc(N2C(=S)N(c3ccc(C#N)c(C(F)(F)F)c3)C(=O)C2(C)C)cc1F [MDV3100, enzalutamide]
- survival after L-TBI: did not mediate any survival benefit
